Assay results published in ChEMBL document CHEMBL3098009, “Synthesis of a novel series of artemisinin dimers with potent anticancer activity involving Sonogashira cross-coupling reaction” (2014).

Assays:
Type in all cases: functional
[1] = Cytotoxicity against human prostate cancer cells assessed as growth inhibition at 10 uM by SRB assay; conditions: Cancer cell lines, read-out: GI
[2] = Cytotoxicity against human prostate cancer cells assessed as growth inhibition at 50 uM by SRB assay; conditions: Cancer cell lines, read-out: GI
[3] = Cytotoxicity against human IMR32 cells assessed as growth inhibition at 50 uM by SRB assay; conditions: IMR-32, read-out: GI
[4] = Cytotoxicity against human IMR32 cells assessed as growth inhibition at 10 uM by SRB assay; conditions: IMR-32, read-out: GI
A549 [5] = experiment: Cytotoxicity against human A549 cells assessed as growth inhibition at 50 uM by SRB assay; conditions: read-out: GI
A549 [6] = experiment: Cytotoxicity against human A549 cells assessed as growth inhibition at 10 uM by SRB assay; conditions: read-out: GI
MCF7 [7] = experiment: Cytotoxicity against human MCF7 cells assessed as growth inhibition at 50 uM by SRB assay; conditions: read-out: GI
HeLa [8] = experiment: Cytotoxicity against human HeLa cells assessed as growth inhibition at 10 uM by SRB assay; conditions: read-out: GI
MCF7 [9] = experiment: Cytotoxicity against human MCF7 cells assessed as growth inhibition at 10 uM by SRB assay; conditions: read-out: GI
HeLa [10] = experiment: Cytotoxicity against human HeLa cells assessed as growth inhibition at 50 uM by SRB assay; conditions: read-out: GI

| SMILES | inhibition of growth at 10 µM [1] [%] | inhibition of growth at 50 µM [2] [%] | inhibition of growth at 50 µM [3] [%] | inhibition of growth at 10 µM [4] [%] | inhibition of growth at 50 µM (A549 [5]) [%] | inhibition of growth at 10 µM (A549 [6]) [%] | inhibition of growth at 50 µM (MCF7 [7]) [%] | inhibition of growth at 10 µM (HeLa [8]) [%] | inhibition of growth at 10 µM (MCF7 [9]) [%] | inhibition of growth at 50 µM (HeLa [10]) [%] |
| --- | --- | --- | --- | --- | --- | --- | --- | --- | --- | --- |
| CO[C@@]12[C@H](COC(N)=O)C3=C(C(=O)C(C)=C(N)C3=O)N1C[C@@H]1N[C@@H]12 [MITOMYCIN] | 65 |  |  |  |  |  |  |  |  |  |
| C[C@@H]1CC[C@H]2[C@@H](C)C(OCC#Cc3cccc(C#CCOC4O[C@@H]5O[C@@]6(C)CC[C@H]7[C@H](C)CC[C@@H]([C@H]4C)[C@@]57OO6)c3)O[C@@H]3O[C@@]4(C)CC[C@@H]1[C@]32OO4 (stereo partly specified) | 50 | 65 | 45 | 40 | 70 | 65 |  |  |  |  |
| C[C@@H]1CC[C@H]2[C@@H](C)C(OCCC#Cc3ccc(-c4ccc(C#CCCOC5O[C@@H]6O[C@@]7(C)CC[C@H]8[C@H](C)CC[C@@H]([C@H]5C)[C@@]68OO7)cc4)cc3)O[C@@H]3O[C@@]4(C)CC[C@@H]1[C@]32OO4 (stereo partly specified) | 41 | 47 | 27 | 4 | 74 | 67 | 38 | 18 | 24 | 50 |
| C[C@@H]1CC[C@H]2[C@@H](C)C(OCCC#Cc3ccc(C#CCCOC4O[C@@H]5O[C@@]6(C)CC[C@H]7[C@H](C)CC[C@@H]([C@H]4C)[C@@]57OO6)cc3)O[C@@H]3O[C@@]4(C)CC[C@@H]1[C@]32OO4 (stereo partly specified) | 48 | 55 | 37 | 11 | 72 | 56 | 41 | 20 | 26 | 24 |
| C[C@@H]1CC[C@H]2[C@@H](C)C(OCCC#Cc3ccc(C#CCCOC4O[C@@H]5O[C@@]6(C)CC[C@H]7[C@H](C)CC[C@@H]([C@H]4C)[C@@]57OO6)s3)O[C@@H]3O[C@@]4(C)CC[C@@H]1[C@]32OO4 (stereo partly specified) | 49 | 53 | 28 | 26 | 78 | 77 | 41 | 51 | 31 | 52 |
| COc1cccc2c1C(=O)c1c(O)c3c(c(O)c1C2=O)C[C@@](O)(C(=O)CO)C[C@@H]3O[C@H]1C[C@H](N)[C@H](O)[C@H](C)O1 [DOXORUBICIN] |  |  |  | 69 |  |  |  |  |  |  |
| C[C@@H]1CC[C@H]2[C@@H](C)C(OCCC#Cc3cccc(C#CCCOC4O[C@@H]5O[C@@]6(C)CC[C@H]7[C@H](C)CC[C@@H]([C@H]4C)[C@@]57OO6)c3)O[C@@H]3O[C@@]4(C)CC[C@@H]1[C@]32OO4 (stereo partly specified) | 45 | 60 | 30 | 10 | 65 | 60 |  |  |  |  |
| C[C@@H]1CC[C@H]2[C@@H](C)C(OCC#Cc3ccc(C#CCOC4O[C@@H]5O[C@@]6(C)CC[C@H]7[C@H](C)CC[C@@H]([C@H]4C)[C@@]57OO6)s3)O[C@@H]3O[C@@]4(C)CC[C@@H]1[C@]32OO4 (stereo partly specified) | 44 | 47 | 83 | 54 | 73 | 70 | 29 | 35 | 25 | 37 |
| C[C@@H]1CC[C@H]2[C@@H](C)C(=O)O[C@@H]3O[C@@]4(C)CC[C@@H]1[C@]32OO4 [ARTEMISININ] | 35 | 40 | 34 | 24 | 38 | 26 | 36 | 51 | 25 | 66 |
| C[C@@H]1CC[C@H]2[C@@H](C)C(OCC#Cc3ccc(C#CCOC4O[C@@H]5O[C@@]6(C)CC[C@H]7[C@H](C)CC[C@@H]([C@H]4C)[C@@]57OO6)cc3)O[C@@H]3O[C@@]4(C)CC[C@@H]1[C@]32OO4 (stereo partly specified) | 56 | 68 | 56 | 50 | 69 | 67 | 45 | 34 | 36 | 43 |
| O=c1[nH]cc(F)c(=O)[nH]1 [FLUOROURACIL] |  |  |  |  |  |  |  | 62 |  |  |
| C[C@@H]1CC[C@H]2[C@@H](C)C(OCC#Cc3ccc(-c4ccc(C#CCOC5O[C@@H]6O[C@@]7(C)CC[C@H]8[C@H](C)CC[C@@H]([C@H]5C)[C@@]68OO7)cc4)cc3)O[C@@H]3O[C@@]4(C)CC[C@@H]1[C@]32OO4 (stereo partly specified) | 46 | 68 | 43 | 34 | 69 | 64 | 32 | 47 | 30 | 57 |
| CC(=O)O[C@H]1C(=O)[C@@]2(C)[C@H]([C@H](OC(=O)c3ccccc3)[C@]3(O)C[C@H](OC(=O)[C@H](O)[C@@H](NC(=O)c4ccccc4)c4ccccc4)C(C)=C1C3(C)C)[C@]1(OC(C)=O)CO[C@@H]1C[C@@H]2O [PACLITAXEL] |  |  |  |  |  | 56 |  |  |  |  |
